From patent US9309242B2, “Substituted pyrido[2,3-b]pyrazines as FGFR kinase inhibitors” (priority 2011, dated 2016)
Structures can show the parent of a compound that is named as a salt.

SMILES | melting point [°C]
COc1cc(/N=c2\ccc3ncc(-c4cnn(C)c4)nc3n2CC2CCCCO2)cc(OC)c1 (stereo not drawn) | 210
COc1cc(OC)c(F)c(N(Cc2ncn(C3CNC3)n2)c2ccc3ncc(-c4cnn(C)c4)nc3n2)c1 | 126
CNCCN(c1ccc2ncc(-c3cn[nH]c3)nc2n1)c1c(F)c(OC)cc(OC)c1F (as salt: HCl) (hydrate or solvate) [Compound 106] | 250
COc1cc(/N=c2\ccc3ncc(-c4cnn(C)c4)nc3n2Cc2cc[nH]n2)c(F)c(OC)c1 (as salt: HCl) (hydrate or solvate) [Compound 115] | 130
COc1cc(OC)c(F)c(N(Cc2ncc[nH]2)c2ccc3ncc(-c4cnn(C)c4)nc3n2)c1 (as salt: fumarate) [Compound 23] | 186
COc1cc(OC)cc(N(Cc2ncc[nH]2)c2ccc3ncc(-c4cnn(C)c4)nc3n2)c1 (as salt: fumarate) [Compound 24] | 222
COc1cc(OC)c(F)c(N(Cc2ncc[nH]2)c2ccc3ncc(-c4cnn(C)c4)nc3n2)c1 (as salt: hydrochloric acid salt) [Compound 23] | 216
COc1cc(OC)cc(N(Cc2ncc[nH]2)c2ccc3ncc(-c4cnn(C)c4)nc3n2)c1 (as salt: hydrochloride) (hydrate or solvate) [Compound 24] | > 260
COc1cc(OC)cc(N(CCN2CCOCC2)c2ccc3ncc(-c4cnn(C)c4)nc3n2)c1 (as salt: hydrochloride) (hydrate or solvate) [Compound 146] | 143
COc1cc(OC)c(F)c(N(Cc2ncc[nH]2)c2ccc3ncc(-c4cnn(C)c4)nc3n2)c1 (as salt: lactate) [Compound 23] | 118
COc1cc(OC)c(F)c(N(Cc2ncc[nH]2)c2ccc3ncc(-c4cnn(C)c4)nc3n2)c1 (as salt: phosphate) [Compound 23] | 175
COc1cc(OC)cc(N(Cc2ncc[nH]2)c2ccc3ncc(-c4cnn(C)c4)nc3n2)c1 (as salt: phosphate) [Compound 24] | 253
